Data published in patent US10688093B2, “Methods, compositions, and uses of novel Fyn kinase inhibitors” (priority 2015, dated 2020).

biological target: full-length recombinant human FYN A (Homo sapiens (Human), UniProt P06241); test: ADP-Glo Kinase Assay of FYN kinase inhibition; assay type: biochemical; settings: primary screen, initial compounds
Outline: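 GST-tagged full-length FYN A (baculovirus, Sf9) at 3 pg preincubated 30 min RT with compound (10-point 3-fold series from 10 μM) in Tris pH 7.5/MgCl2 buffer. 12-mer tyrosine peptide plus 12.5 pmol ATP added, 90 min RT; ADP measured by ADP-Glo luminescence, IC50 from dose-response.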

full-length recombinant human FYN A, sequence (P06241 whole entry): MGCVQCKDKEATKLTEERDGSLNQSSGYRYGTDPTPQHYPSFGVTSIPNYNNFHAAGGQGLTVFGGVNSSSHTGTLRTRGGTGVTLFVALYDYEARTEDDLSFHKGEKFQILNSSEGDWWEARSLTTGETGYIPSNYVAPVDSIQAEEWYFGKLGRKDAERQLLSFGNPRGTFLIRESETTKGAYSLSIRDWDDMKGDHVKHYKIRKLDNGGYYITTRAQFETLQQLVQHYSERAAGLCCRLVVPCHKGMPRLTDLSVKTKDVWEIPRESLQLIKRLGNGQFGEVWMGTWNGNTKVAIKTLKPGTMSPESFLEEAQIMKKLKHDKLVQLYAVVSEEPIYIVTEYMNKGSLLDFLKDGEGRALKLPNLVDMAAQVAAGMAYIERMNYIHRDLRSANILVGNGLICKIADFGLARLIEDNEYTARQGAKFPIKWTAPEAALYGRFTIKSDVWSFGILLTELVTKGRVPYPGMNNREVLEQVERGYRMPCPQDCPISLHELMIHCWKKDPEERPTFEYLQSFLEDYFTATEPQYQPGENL

In order of falling IC50:
1. CN(C)CCCNC(=O)c1ccc(-c2cn3c(-c4cccc(Cl)c4)cnc3cn2)cc1 [Compound 220, 4-[3-(3-chlorophenyl)imidazo[1,2-a]pyrazin-6-yl]-N-[3-(dimethylamino)propyl]benzamide]  8430 nM
2. CN1CCN(c2ccc(-c3cn4c(-c5ccsc5)cnc4cn3)cn2)CC1 [Compound 225, 6-[6-(4-methylpiperazin-1-yl)-3-pyridyl]-3-(3-thienyl)imidazo [1,2-a]pyrazine]  7050 nM
3. Oc1cccc(-c2cnc3cnc(-c4ccccc4)cn23)c1 [Compound 204, 3-(6-phenylimidazo [1,2-a]pyrazin-3-yl)phenol]  6550 nM
4. Oc1ccc(-c2cnc3cnc(-c4ccc(Cl)cc4)cn23)cc1 [Compound 208, 4-[6-(4-chlorophenyl)imidazo[1,2-a]pyrazin-3-yl]phenol]  6380 nM
5. c1coc(-c2cn3c(-c4ccsc4)cnc3cn2)c1 [Compound 203, 6-(2-furyl)-3-(3-thienyl)imidazo [1,2-a]pyrazine]  6250 nM
6. Oc1cccc(-c2cnc3cnc(-c4ccco4)cn23)c1 [Compound 211, 3-[6-(2-furyl)imidazo [1,2-a]pyrazin-3-yl]phenol]  6110 nM
7. c1csc(-c2cn3c(-c4ccncc4)cnc3cn2)c1 [Compound 198, 3-(4-pyridyl)-6-(2-thienyl)imidazo [1,2-a]pyrazine]  5690 nM
8. COc1ccc(-c2cnc3cnc(-c4ccc(N5CCN(C)CC5)cc4)cn23)cc1 [Compound 223, 3-(4-methoxyphenyl)-6-[4-(4-methyl-piperazin-1-yl)phenyl] imidazo[1,2-a]pyrazine]  5250 nM
9. OCc1ccc(-c2cn3c(-c4ccc(Oc5ccccc5)cc4)cnc3cn2)cc1 [Compound 207]  4720 nM
10. CN(C)CCCNC(=O)c1ccc(-c2cn3c(-c4ccsc4)cnc3cn2)cc1 [Compound 222, N-[3-(dimethylamino)propyl]-4-[3-(3-thienyl)imidazo [1,2-a]pyrazin-6-yl]benzamide]  3870 nM
11. O=C(NCCO)c1cccc(-c2cn3c(-c4ccsc4)cnc3cn2)c1 [Compound 224, N-(2-hydroxyethyl)-3-[3-(3-thienyl)imidazo [1,2-a]pyrazin-6-yl]benzamide]  3670 nM
12. OCc1ccc(-c2cn3c(-c4cccc(O)c4)cnc3cn2)cc1 [Compound 213, 3-[6-[4-(hydroxymethyl)phenyl]imidazo [1,2-a]pyrazin-3-yl]phenol]  3360 nM
13. CS(=O)(=O)Nc1cccc(-c2cn3c(-c4ccsc4)cnc3cn2)c1 [Compound 202, N-[3-[3-(3-thienyl)imidazo [1,2-a]pyrazin-6-yl]phenyl] methane-sulfonamide]  3320 nM
14. Oc1cccc(-c2cnc3cnc(-c4cccs4)cn23)c1 [Compound 209, 3-[6-(2-thienyl)imidazo [1,2-a]pyrazin-3-yl]phenol]  2780 nM
15. Cn1cc(-c2cn3c(-c4cccc(O)c4)cnc3cn2)cn1 [Compound 214, 3-[6-(1-methylpyrazol-4-yl)imidazo[1,2-a]pyrazin-3-yl]phenol]  2780 nM
16. Oc1ccc(-c2cnc3cnc(-c4cccnc4)cn23)cc1 [Compound 206, 4-[6-(3-pyridyl)imidazo [1,2-a]pyrazin-3-yl]phenol]  2730 nM
17. Oc1ccc(-c2cn3c(-c4ccsc4)cnc3cn2)cc1 [Compound 199, 4-[3-(3-thienyl)imidazo [1,2-a]pyrazin-6-yl]phenol]  2700 nM
18. CC(=O)Nc1cccc(-c2cn3c(-c4ccsc4)cnc3cn2)c1 [Compound 201, N-[3-[3-(3-thienyl)imidazo [1,2-a]pyrazin-6-yl]phenyl] acetamide]  2330 nM
19. c1csc(-c2cn3c(-c4ccsc4)cnc3cn2)c1 [Compound 200, 6-(2-thienyl)-3-(3-thienyl)imidazo [1,2-a]pyrazine]  2250 nM
20. CN1CCN(c2ccc(-c3cn4c(-c5ccc(Oc6ccccc6)cc5)cnc4cn3)cn2)CC1 [Compound 216, 6-[6-(4-methylpiperazin-1-yl)-3-pyridyl]-3-(4-phenoxyphenyl) imidazo[1,2-a]pyrazine]  2130 nM
21. COc1ccc(-c2cn3c(-c4ccc(O)cc4)cnc3cn2)cn1 [Compound 212, 4-[6-(6-methoxy-3-pyridyl)imidazo [1,2-a]pyrazin-3-yl]phenol]  1980 nM
22. Cn1cc(-c2cn3c(-c4ccc(Oc5ccccc5)cc4)cnc3cn2)cn1 [Compound 210, 6-(1-methylpyrazol-4-yl)-3-(4-phenoxyphenyl) imidazo[1,2-a]pyrazine]  1930 nM
23. Nc1ccc(-c2cn3c(-c4ccc(Oc5ccccc5)cc4)cnc3cn2)cn1 [Compound 221, 5-[3-(4-phenoxyphenyl)imidazo[1,2-a]pyrazin-6-yl]pyridin-2-amine]  1720 nM
24. Cn1cc(-c2cn3c(-c4ccc(O)cc4)cnc3cn2)cn1 [Compound 215, 4-[6-(1-methylpyrazol-4-yl)imidazo[1,2-a]pyrazin-3-yl]phenol]  1590 nM
25. NC(=O)c1cccc(-c2cn3c(-c4cccc(O)c4)cnc3cn2)c1 [Compound 205, 3-[3-(3-hydroxyphenyl)imidazo[1,2-a]pyrazin-6-yl]benzamide]  1580 nM
26. O=C(NCCO)c1cccc(-c2cn3c(-c4ccc(Oc5ccccc5)cc4)cnc3cn2)c1 [Compound 217, N-(2-hydroxyethyl)-3-[3-(4-phenoxyphenyl)imidazo[1,2-a]pyrazin-6-yl]benzamide]  1480 nM
27. O=C(NCCO)c1ccc(-c2cn3c(-c4ccc(Oc5ccccc5)cc4)cnc3cn2)cc1 [Compound 219, N-(2-hydroxyethyl)-4-[3-(4-phenoxyphenyl)imidazo[1,2-a]pyrazin-6-yl]benzamide]  623 nM
28. CN(C)CCNC(=O)c1ccc(-c2cn3c(-c4ccc(Oc5ccccc5)cc4)cnc3cn2)cc1 [Compound 218, N-(2-dimethylamino-ethyl)-4-[3-(4-phenoxyphenyl)imidazo[1,2-a]pyrazin-6-yl]benzamide]  165 nM

same assay, conditions: secondary screen, re-synthesized and expanded compounds

In order of falling IC50:
1. COc1ccc(-c2cnc(N)c(-c3ccc(N4CCN(C)CC4)cc3)c2)cc1O [BF000817418, 5-[6-amino-5-[4-(4-methyl-piperazin-1-yl)phenyl]-3-pyridyl]-2-methoxy-phenol]  9650 nM
2. COc1ccc(-c2cnc3sc(NCC4CCOCC4)nn23)cc1OC [BF000817208, 5-(3,4-dimethoxy-phenyl)-N-(tetra-hydropyran-4-ylmethyl)-imidazo[2,1-b][1,3,4]-thiadiazol-2-amine]  1030 nM
3. OCc1cccc(-c2ccc3ncc(-c4cccc(CO)c4)n3n2)c1 [BF000817188, [3-[3-[3-(hydroxy-methyl)-phenyl]-imidazo[1,2-b]pyridazin-6-yl]phenyl]-methanol]  828 nM
4. CC(=O)Nc1cccc(-c2cnc3ccc(-c4ccncc4)nn23)c1 [BF000817142, N-[3-[6-(4-pyridyl)-imidazo[1,2-b]pyridazin-3-yl]phenyl]-acetamide]  741 nM
5. CC(=O)c1cccc(-c2cnc3ccc(NCCCO)nn23)c1 [BF000817098, 1-[3-[6-(3-hydroxy-propyl-amino)-imdazo[1,2-b]pyridazin-3-yl]phenyl]-ethanone]  645 nM
6. CC(C)[C@@H](CO)Nc1ccc2ncc(-c3ccncc3)n2n1 [BF000817097, (2S)-3-methyl-2-[[3-(4-pyridyl)-imidazo[1,2-b]pyridazin-6-yl]amino]-butan-1-ol]  631 nM
7. CC(=O)Nc1cccc(-c2cnc3ccc(-c4cccc(CO)c4)nn23)c1 [BF000817329, N-[3-[6-[3-(hydroxy-methyl)-phenyl]-imidazo[1,2-b]pyridazin-3-yl]phenyl]-acetamide]  435 nM
8. COc1cncc(-c2cnc3sc(NC4CCC(O)CC4)nn23)c1 (centres unmarked) [BF000802724, 4-[[5-(5-methoxy-3-pyridyl)-imidazo[2,1-b][1,3,4]-thiadiazol-2-yl]amino]-cyclohexanol]  301 nM
9. CC(=O)c1cccc(-c2cnc3ccc(-c4cccc(CO)c4)nn23)c1 [BF000726471, 1-[3-[6-[3-(hydroxy-methyl)-phenyl]-imidazo[1,2-b]pyridazin-3-yl]phenyl]-ethanone]  291 nM
10. c1cc(-c2cnc3ccc(NC4CCOCC4)nn23)ccn1 [BF000817099, 3-(4-pyridyl)-N-tetrahydro-pyran-4-yl-imidazo[1,2-b]pyridazin-6-amine]  270 nM
11. CN(C)CCCNC(=O)c1ccc(-c2cn3c(-c4ccc(Oc5ccccc5)cc4)cnc3cn2)cc1 [BF000816927, N-[3-(dimethyl-amino)-propyl]-4-[3-(4-phenoxy-phenyl)imidazo[1,2-a]pyrazin-6-yl]benzamide]  247 nM
12. COc1cc(-c2cc(-c3ccc(N4CCOCC4)cc3)cnc2N)ccc1O [BF000817413, 4-[2-amino-5-(4-morpholino-phenyl)-3-pyridyl]-2-methoxy-phenol]  212 nM
13. c1ccc(CNc2ccc3ncc(-c4ccncc4)n3n2)nc1 [BF000817170, 3-(4-pyridyl)-N-(2-pyridyl-methyl)-imidazo[1,2-b]pyridazin-6-amine]  170 nM
14. COc1cc(-c2cnc(N)c(-c3cc(OC)c(OC)c(OC)c3)c2)cc(OC)c1OC [BF000817175, 3,5-bis(3,4,5-trimethoxy-phenyl)-pyridin-2-amine]  85.4 nM
15. COc1cc(-c2cnc3ccc(-c4ccncc4)nn23)ccc1O [BF000817169, 2-methoxy-4-[6-(4-pyridyl)-imidazo[1,2-b]pyridazin-3-yl]phenol]  79.4 nM
16. COc1cc(-c2cc(-c3ccc(N4CCN(C(C)C)CC4)cc3)cnc2N)ccc1O [BF000817185]  78.1 nM
17. COc1cc(-c2cnc3ccc(-c4cccc(CO)c4)nn23)ccc1O [BF000726487, 4-[6-[3-(hydroxy-methyl)-phenyl]-imidazo[1,2-b]pyridazin-3-yl]-2-methoxy-phenol]  63 nM
18. COc1cc(-c2cnc3ccc(-c4ccc(CO)cc4)nn23)ccc1O [BF000726486, 4-[6-[4-(hydroxy-methyl)-phenyl]-imidazo[1,2-b]pyridazin-3-yl]-2-methoxy-phenol]  61.8 nM
19. COc1cc(-c2ccc3ncc(-c4ccc(O)c(OC)c4)n3n2)ccc1O [BF000817186, 4-[3-(4-hydroxy-3-methoxy-phenyl)-imidazo[1,2-b]pyridazin-6-yl]-2-methoxy-phenol]  29.4 nM
